Source: PubChem BioAssay AID1745844 (Carcinogenic Potency Database (CPDB), 2022)
Activity calls are given as the source filed them. The rule behind the calls is not given here.

Tested on: rodent lifetime carcinogenesis bioassay, tumor incidence TD50
Experiment: chronic cancer bioassays in animals – CPDB, compiled studies (AID 1745844)

With `Nc1ccc([N+](=O)[O-])cc1O` the TD50 (mouse, strain B6C3F1, females, by gavage, site: any site (literature study), lesion: several types, types named in the paper, dosed 103 weeks, study length 104 weeks) was 5760 mg/kg/day (inactive), the TD50 (mouse, strain B6C3F1, females, by gavage, site: lung, lesion: alveolar/bronchiolar adenoma + alveolar/bronchiolar carcinoma, dosed 103 weeks, study length 104 weeks) was 807000 mg/kg/day and the carcinogen call (mouse, strain B6C3F1, males, by gavage, site: any site (literature study), lesion: several types, types named in the paper, dosed 103 weeks, study length 104 weeks) was “negative (inactive)”. For the same molecule, the carcinogen call (rat, strain Fischer 344, females, by gavage, site: any site (literature study), lesion: several types, types named in the paper, dosed 103 weeks, study length 104 weeks) was “negative (inactive)”, the TD50 (rat, strain Fischer 344, males, by gavage, site: adrenal medulla, lesion: pheochromocytoma + pheochromocytoma, malignant, dosed 103 weeks, study length 104 weeks) was 101 mg/kg/day and the TD50 (rat, strain Fischer 344, males, by gavage, site: any site (literature study), lesion: several types, types named in the paper, dosed 103 weeks, study length 104 weeks) was 33.6 mg/kg/day. The TD50 (rat, strain Fischer 344, males, by gavage, site: liver, lesion: hepatocellular adenoma + hepatocellular carcinoma + neoplastic nodule, dosed 103 weeks, study length 104 weeks) was 1560 mg/kg/day, the TD50 (rat, strain Fischer 344, males, by gavage, site: pancreas, lesion: acinar-cell adenoma, dosed 103 weeks, study length 104 weeks) was 111 mg/kg/day and the TD50 (rat, strain Fischer 344, males, by gavage, site: pancreas, lesion: acinar-cell carcinoma + acinar-cell adenoma, dosed 103 weeks, study length 104 weeks) was 107 mg/kg/day. The TD50 (rat, strain Fischer 344, males, by gavage, site: pancreatic islets, lesion: islet-cell carcinoma, dosed 103 weeks, study length 104 weeks) was 393 mg/kg/day, the TD50 (rat, strain Fischer 344, males, by gavage, site: preputial gland, lesion: adenoma, NOS + carcinoma, NOS, dosed 103 weeks, study length 104 weeks) was 392 mg/kg/day and the TD50 (rat, strain Fischer 344, males, by gavage, site: preputial gland, lesion: carcinoma, NOS, dosed 103 weeks, study length 104 weeks) was 562 mg/kg/day. It also gave a TD50 (rat, strain Fischer 344, males, by gavage, site: testis, lesion: interstitial-cell tumor, dosed 103 weeks, study length 104 weeks) of 28.6 mg/kg/day.
With `CN(N=O)C(=O)c1ccccc1` the TD50 (rat, strain MRC-Wistar, females, in drinking water, site: any site (literature study), lesion: several types, types named in the paper, dosed 52 weeks, study length 130 weeks) was 11.2 mg/kg/day, the carcinogen call (rat, strain MRC-Wistar, females, in drinking water, site: liver, lesion: one or several types, types not named, dosed 52 weeks, study length 130 weeks) was “negative (inactive)” and the TD50 (rat, strain MRC-Wistar, males, in drinking water, site: any site (literature study), lesion: several types, types named in the paper, dosed 52 weeks, study length 130 weeks) was 2.49 mg/kg/day. The TD50 (rat, strain MRC-Wistar, males, in drinking water, site: forestomach, lesion: several types, types named in the paper, dosed 52 weeks, study length 130 weeks) was 3.23 mg/kg/day, the TD50 (rat, strain MRC-Wistar, males, in drinking water, site: forestomach, lesion: squamous-cell carcinoma, dosed 52 weeks, study length 130 weeks) was 9.66 mg/kg/day and the TD50 (rat, strain MRC-Wistar, males, in drinking water, site: forestomach, lesion: squamous-cell papilloma, dosed 52 weeks, study length 130 weeks) was 7.73 mg/kg/day. The carcinogen call (rat, strain MRC-Wistar, males, in drinking water, site: liver, lesion: one or several types, types not named, dosed 52 weeks, study length 130 weeks) was “negative (inactive)”.
With `Cc1c(-c2cnccn2)ssc1=S` the carcinogen call (rat, strain Charles River CD (Sprague-Dawley), females, by gavage, site: liver, lesion: one or several types, types not named, dosed 52 weeks, study length 52 weeks) was “negative (inactive)” and the carcinogen call (rat, strain Charles River CD (Sprague-Dawley), males, by gavage, site: liver, lesion: one or several types, types not named, dosed 52 weeks, study length 52 weeks) was “negative (inactive)”.
With `CN(Cc1cnc2nc(N)nc(N)c2n1)c1ccc(C(=O)N[C@@H](CCC(=O)O)C(=O)O)cc1` the carcinogen call (hamster, strain Syrian Golden, females, in feed, site: any site (literature study), lesion: several types, types named in the paper, dosed 101 weeks, study length 105 weeks) was “negative (inactive)”, the TD50 (hamster, strain Syrian Golden, females, in feed, site: liver, lesion: hepatocellular adenoma, dosed 101 weeks, study length 105 weeks) was 51.1 mg/kg/day (inactive) and the TD50 (hamster, strain Syrian Golden, females, in feed, site: liver, lesion: several types, types named in the paper, dosed 101 weeks, study length 105 weeks) was 167 mg/kg/day. The carcinogen call (hamster, strain Syrian Golden, males, in feed, site: any site (literature study), lesion: several types, types named in the paper, dosed 108 weeks, study length 115 weeks) was “negative (inactive)”, the carcinogen call (hamster, strain Syrian Golden, males, in feed, site: liver, lesion: one or several types, types not named, dosed 108 weeks, study length 115 weeks) was “negative (inactive)” and the TD50 (mouse, strain Swiss, females, in feed, site: any site (literature study), lesion: several types, types named in the paper, dosed 120 weeks, study length 120 weeks) was 48 mg/kg/day (inactive). The TD50 (mouse, strain Swiss, females, in feed, site: liver, lesion: hepatocellular carcinoma, dosed 120 weeks, study length 120 weeks) was 65.2 mg/kg/day (inactive), the carcinogen call (mouse, strain Swiss, females, in feed, site: lung, lesion: several types, types named in the paper, dosed 120 weeks, study length 120 weeks) was “negative (inactive)” and the carcinogen call (mouse, strain Swiss, males, in feed, site: any site (literature study), lesion: several types, types named in the paper, dosed 118 weeks, study length 120 weeks) was “negative (inactive)”. For the same molecule, the carcinogen call (mouse, strain Swiss, males, in feed, site: liver, lesion: hemangioma, dosed 118 weeks, study length 120 weeks) was “negative (inactive)”, the carcinogen call (mouse, strain Swiss, males, in feed, site: lung, lesion: several types, types named in the paper, dosed 118 weeks, study length 120 weeks) was “negative (inactive)” and the TD50 (rat, strain BR 46, males, i.v., site: any site (literature study), lesion: benign tumor, dosed 52 weeks, study length 104 weeks) was 0.409 mg/kg/day (inactive). The TD50 (rat, strain BR 46, males, i.v., site: any site (literature study), lesion: malignant tumor, dosed 52 weeks, study length 104 weeks) was 2.96 mg/kg/day (inactive), the TD50 (rat, strain BR 46, males, i.v., site: any site (literature study), lesion: several types, types named in the paper, dosed 52 weeks, study length 104 weeks) was 0.33 mg/kg/day (inactive) and the carcinogen call (rat, strain Sprague-Dawley, females, i.p., site: any site (literature study), lesion: malignant tumor, dosed 104 weeks, study length 104 weeks) was “negative (inactive)”. The carcinogen call (rat, strain Sprague-Dawley, males, i.p., site: any site (literature study), lesion: malignant tumor, dosed 104 weeks, study length 104 weeks) was “negative (inactive)”.
`CCCCNC(N)=O` was tested, and the carcinogen call (mouse, strain C57BL/6, females, in feed, site: any site (literature study), lesion: several types, types named in the paper, dosed 52 weeks, study length 69 weeks) was “negative (inactive)”, the carcinogen call (mouse, strain C57BL/6, females, in feed, site: liver, lesion: hepatocellular carcinoma, dosed 52 weeks, study length 69 weeks) was “negative (inactive)” and the carcinogen call (mouse, strain C57BL/6, females, in feed, site: lung, lesion: adenoma, dosed 52 weeks, study length 69 weeks) was “negative (inactive)”. The TD50 (mouse, strain C57BL/6, males, in feed, site: any site (literature study), lesion: several types, types named in the paper, dosed 52 weeks, study length 69 weeks) was 699 mg/kg/day (inactive), the carcinogen call (mouse, strain C57BL/6, males, in feed, site: liver, lesion: hepatocellular carcinoma, dosed 52 weeks, study length 69 weeks) was “negative (inactive)” and the TD50 (mouse, strain C57BL/6, males, in feed, site: lung, lesion: adenoma, dosed 52 weeks, study length 69 weeks) was 5510 mg/kg/day (inactive). The carcinogen call (rat, strain Fischer 344, females, in feed, site: any site (literature study), lesion: several types, types named in the paper, dosed 52 weeks, study length 69 weeks) was “negative (inactive)”, the carcinogen call (rat, strain Fischer 344, females, in feed, site: liver, lesion: one or several types, types not named, dosed 52 weeks, study length 69 weeks) was “negative (inactive)” and the carcinogen call (rat, strain Fischer 344, males, in feed, site: any site (literature study), lesion: several types, types named in the paper, dosed 52 weeks, study length 69 weeks) was “negative (inactive)”. The carcinogen call (rat, strain Fischer 344, males, in feed, site: liver, lesion: one or several types, types not named, dosed 52 weeks, study length 69 weeks) was “negative (inactive)”.
With `N#CS` the carcinogen call (rat, strain Fischer 344, females, in drinking water, site: liver, lesion: one or several types, types not named, dosed 112 weeks, study length 130 weeks) was “negative (inactive)”, the TD50 (rat, strain Fischer 344, males, in drinking water, site: liver, lesion: one or several types, types not named, dosed 112 weeks, study length 130 weeks) was 2760 mg/kg/day (inactive) and the TD50 (rat, strain Fischer 344, males, in drinking water, site: skin and subcutis, lesion: one or several types, types not named, dosed 112 weeks, study length 130 weeks) was 224 mg/kg/day (inactive).
With `OCC(O)[C@@H](O)[C@H](O)[C@H](O)CO[C@H]1O[C@H](CO)[C@@H](O)[C@H](O)[C@H]1O` (some centres undefined) the TD50 (mouse, strain Cpb:Swiss random, females, in feed, site: any site (literature study), lesion: one or several types, types not named, dosed 104 weeks, study length 104 weeks) was 83400 mg/kg/day (inactive), the carcinogen call (mouse, strain Cpb:Swiss random, females, in feed, site: liver, lesion: one or several types, types not named, dosed 104 weeks, study length 104 weeks) was “negative (inactive)” and the TD50 (mouse, strain Cpb:Swiss random, females, in feed, site: lung, lesion: alveolar-cell tumor, dosed 104 weeks, study length 104 weeks) was 92600 mg/kg/day (inactive). For the same molecule, the carcinogen call (mouse, strain Cpb:Swiss random, males, in feed, site: any site (literature study), lesion: one or several types, types not named, dosed 94 weeks, study length 94 weeks) was “negative (inactive)”, the carcinogen call (mouse, strain Cpb:Swiss random, males, in feed, site: liver, lesion: hepatocellular carcinoma, dosed 94 weeks, study length 94 weeks) was “negative (inactive)” and the carcinogen call (mouse, strain Cpb:Swiss random, males, in feed, site: liver, lesion: neoplastic nodule, dosed 94 weeks, study length 94 weeks) was “negative (inactive)”. For the same molecule, the TD50 (mouse, strain Cpb:Swiss random, males, in feed, site: lung, lesion: alveolar-cell tumor, dosed 94 weeks, study length 94 weeks) was 26200 mg/kg/day (inactive).
`FCC(F)(F)F` was tested, and the carcinogen call (mouse, strain B6C3F1, females, inhaled, site: liver, lesion: hepatocellular adenoma, dosed 104 weeks, study length 104 weeks) was “negative (inactive)”, the carcinogen call (mouse, strain B6C3F1, females, inhaled, site: liver, lesion: hepatocellular carcinoma, dosed 104 weeks, study length 104 weeks) was “negative (inactive)” and the carcinogen call (mouse, strain B6C3F1, females, inhaled, site: lung, lesion: alveolar/bronchiolar tumor, dosed 104 weeks, study length 104 weeks) was “negative (inactive)”. For the same molecule, the TD50 (mouse, strain B6C3F1, males, inhaled, site: liver, lesion: hepatocellular adenoma, dosed 104 weeks, study length 104 weeks) was 1.5e+06 mg/kg/day (inactive), the TD50 (mouse, strain B6C3F1, males, inhaled, site: liver, lesion: hepatocellular carcinoma, dosed 104 weeks, study length 104 weeks) was 260000 mg/kg/day (inactive) and the carcinogen call (mouse, strain B6C3F1, males, inhaled, site: lung, lesion: alveolar/bronchiolar tumor, dosed 104 weeks, study length 104 weeks) was “negative (inactive)”. For the same molecule, the TD50 (rat, strain Alpk:APfSD, males, inhaled, site: testis, lesion: Leydig-cell adenoma, dosed 104 weeks, study length 104 weeks) was 29900 mg/kg/day, the TD50 (rat, strain Han-Ibm Wistar, females, inhaled, site: liver, lesion: hepatocellular carcinoma, dosed 108 weeks, study length 108 weeks) was 2.8e+06 mg/kg/day (inactive) and the TD50 (rat, strain Han-Ibm Wistar, males, inhaled, site: liver, lesion: hepatocellular adenoma, dosed 108 weeks, study length 108 weeks) was 70100 mg/kg/day (inactive). For the same molecule, the TD50 (rat, strain Han-Ibm Wistar, males, inhaled, site: liver, lesion: hepatocellular carcinoma, dosed 108 weeks, study length 108 weeks) was 140000 mg/kg/day (inactive) and the carcinogen call (rat, strain Han-Ibm Wistar, males, inhaled, site: testis, lesion: interstitial-cell tumor, dosed 108 weeks, study length 108 weeks) was “negative (inactive)”.
